The values below come from patent US20250154141A1 (University of Florida Research Foundation, Incorporated, priority 2021, published 2025).

Common to all, as to type: cell-based
Assay [1] relates to MOLT-4. In words: Cell viability assay (MTS) in MOLT-4 cells. The note with it: Homo sapiens, MOLT-4. As to the method: (§1) Acute lymphoblastic leukemia cells (MOLT-4 and RS4; 11) were incubated with increasing concentrations of Bcl-xL degraders for 48 h. Cell viability was measured by tetrazolium-based MTS assay.
The test system of assay [2] is human platelets. In words: Platelet toxicity assay (MTS viability). Conditions: for IC50: Homo sapiens, Platelet, 48 h, human platelets. The procedure: Platelet-rich plasma (PRP) was purchased from Life South Community Blood Centers (Gainesville, FL, USA). PRP was transferred into a 50 mL tube containing 5 mL of the acid citrate buffer (Cat. No. sc-214744, Santa Cruz Biotechnology). To prevent clotting, prostaglandin E1 (PGE1, Cat. No. sc-201223A, Santa Cruz Biotechnology, Dallas, TX, USA) and apyrase (Cat. No. A6237, Sigma-Aldrich, St. Louis, MO, USA) were added to final concentrations of […] and 0.2 U/mL, respectively. After gently mixing the solution, platelets were pelleted by centrifugation at 1200 g for 10 min without break. Pelleted platelets were gently washed without disturbing platelets using 2 mL of HEPES Tyrode's buffer (Cat. No. PY-921WB, Boston BioProducts, Ashland, MA, USA) containing […] PGE1 and 0.2 U/mL apyrase. After washing, pellets were gently suspended in 10 mL of HEPES Tyrode's buffer containing […] PGE1 and 0.2 U/mL apyrase. Then, the platelet number was counted using a HEMAVET 950FS hematology analyzer (Drew Scientific, Inc., Oxford, CT, USA). For viability assays, the platelet number was adjusted to 2×10^8/mL in HEPES Tyrode's buffer containing […] PGE1 and 0.2 U/mL apyrase. Each treatment was given in 2 mL of the platelet suspension in 15 mL polypropylene tubes. The tubes were placed on a rotating platform at room temperature, and the viability of platelets was measured after 48 h treatment by using the MTS reagent (Cat. No. G1111, Promega, Madison, WI, USA). The data were analyzed by the GraphPad Prism 7 software for the calculation of IC50 values.

Assay [3] deals with RS4; 11. In words: Cell viability assay (MTS) in RS4; 11 cells. Also noted: Anti-Cancer Activity IC50 (48 hr) RS4; 11: scale not given here. Conditions: for IC50: Homo sapiens, RS4-11. The procedure: as §1
[4] abbreviates: Table 3, 48 h, mean of two independent experiments in triplicates, read-out: MOLT-4 48 h IC50.
Where [5] appears, read: Table 3, mean of two independent experiments in triplicates, read-out: Platelets 48 h IC50.
[6] abbreviates: Table 4, read-out: Platelets 48 h IC50.
Setting [7] is: Table 3, ratio of platelet IC50 to MOLT-4 IC50.
Setting [8] is: Table 4, 48 h, read-out: RS4 48 h IC50.
[9] abbreviates: Table 2, 48 hr, MTS, read-out: Anti-Cancer Activity IC50 (48 hr) MOLT-4.
Setting [10] is: Table 4, 48 h, read-out: MOLT-4 48 h IC50.
The mark [11] stands for this setting: Table 2, 48 hr, MTS, read-out: Anti-Cancer Activity IC50 (48 hr) RS4, 11.
The mark [12] stands for this setting: Table 5, read-out: Platelets 48 h IC50.
[13] abbreviates: Table 5, 48 h, read-out: RS4 48 h IC50.

Structures are written as SMILES. Read-outs that look alike come from different tables or passages of the source.

As usually defined, the IC50 is the concentration at which inhibition is half-maximal. Take `CC1(C)CCC(c2ccc(Cl)cc2)=C(CN2CCN(c3ccc(C(=O)NS(=O)(=O)c4ccc(N[C@H](CCN5CCOCC5)CSc5ccccc5)c(S(=O)(=O)C(F)(F)F)c4)cc3)CC2)C1` [ABT-263, navitoclax, reference compound]: the IC50 turned out to be 220 nM in assay [1] (setting [4]); 312 nM in assay [2] (setting [5]); 260 nM in assay [2] (setting [6]); 223 nM in assay [2] (Table 6, 4 th time, read-out: Platelets 4 th time 48 h IC50); 38 nM in assay [3] (setting [8]). For the same compound, the “Platelets/MOLT-4 IC50 Fold change” value in assay [2] (setting [7]) is listed as 1.4; in assay [2] (Table 6, ratio of platelet IC50 to MOLT-4 IC50), 1.

`Cc1ncsc1-c1ccc([C@H](C)NC(=O)[C@@H]2C[C@@H](O)CN2C(=O)[C@@H](NC(=O)CCCCCNC(=O)c2ccc(N3CCN(CC4(C)CCC(c5ccc(Cl)cc5)=C(CN5CCN(c6ccc(C(=O)NS(=O)(=O)c7ccc(N[C@H](CCN8CCOCC8)CSc8ccccc8)c(S(=O)(=O)C(F)(F)F)c7)cc6)CC5)C4)CC3)nc2)C(C)(C)C)cc1` (stereo partly drawn) [Compound 3]: the IC50 is less than 20 nM in assay [1] (setting [9]); 9.6 nM in assay [1] (setting [10]); 4900 nM in assay [2] (setting [6]); 20 to 100 nM in assay [3] (setting [11]); 44.9 nM in assay [3] (setting [8]). Further, in assay [2] (Table 4, ratio of platelet IC50 to MOLT-4 IC50), the “PLT/MOLT-4 IC50 Fold Change” value came to 510.

For the compound `Cc1ncsc1-c1ccc([C@H](C)NC(=O)[C@@H]2C[C@@H](O)CN2C(=O)[C@@H](NC(=O)CCCCCNC(=O)c2ccc(N3CCN(CC4(C)CCC(c5ccc(Cl)cc5)=C(CN5CCN(c6ccc(C(=O)NS(=O)(=O)c7ccc(N[C@H](CCN8CCOCC8)CSc8ccccc8)c(S(=O)(=O)C(F)(F)F)c7)cc6)CC5)C4)CC3)cc2)C(C)(C)C)cc1` (stereo partly drawn) [Compound 12, (2S,4R)-1-((2S)-2-(6-(4-(4-((4′-chloro-4-methyl-6-((4-(4-(((4-(((R)-4-morpholino-1-(phenylthio)butan-2-yl)amino)-3-((trifluoromethyl)sulfonyl)phenyl)sulfonyl)carbamoyl)phenyl)piperazin-1-yl)methyl)-2,3,4,5-tetrahydro-[1,1′-biphenyl]-4-yl)methyl)piperazin-1-yl)benzamido)hexanamido)-3,3-dimethylbutanoyl)-4-hydroxy-N—((S)-1-(4-(4-methylthiazol-5-yl)phenyl)ethyl)pyrrolidine-2-carboxamide], the IC50 in assay [1] (setting [9]) was less than 20 nM; in assay [1] (setting [4]), 17.5 nM; in assay [2] (setting [5]) it was 2160 nM; in assay [3] (setting [11]) it was 20 to 100 nM. Besides, in assay [2] (setting [7]), the “Platelets/MOLT-4 IC50 Fold change” value amounted to 123.

For `Cc1ncsc1-c1ccc([C@H](C)NC(=O)[C@@H]2C[C@@H](O)CN2C(=O)[C@@H](NC(=O)CCCCCCC(=O)N2CCN(CC3(C)CCC(c4ccc(Cl)cc4)=C(CN4CCN(c5ccc(C(=O)NS(=O)(=O)c6ccc(N[C@H](CCN7CCC7)CSc7ccccc7)c([N+](=O)[O-])c6)cc5)CC4)C3)CC2)C(C)(C)C)cc1` (stereo partly drawn) [Compound 37, (2S,4R)-1-((2S)-2-(8-(4-((6-((4-(4-(((4-(((R)-4-(azetidin-1-yl)-1-(phenylthio)butan-2-yl)amino)-3-nitrophenyl)sulfonyl)carbamoyl)phenyl)piperazin-1-yl)methyl)-4′-chloro-4-methyl-2,3,4,5-tetrahydro-[1,1′-biphenyl]-4-yl)methyl)piperazin-1-yl)-8-oxooctanamido)-3,3-dimethylbutanoyl)-4-hydroxy-N—((S)-1-(4-(4-methylthiazol-5-yl)phenyl)ethyl)pyrrolidine-2-carboxamide], the IC50 in assay [1] (setting [9]) is less than 20 nM; in assay [1] (Table 5, 48 h, read-out: MOLT-4 48 h IC50), 20 nM; in assay [2] (setting [12]), 4620 nM; in assay [3] (setting [13]), 7 nM. For the same compound, the “Anti-Cancer Activity IC50 (48 hr) RS4; 11” value in assay [3] (Table 2, 48 hr, MTS) is “+ +”.

For `Cc1ncsc1-c1ccc([C@H](C)NC(=O)[C@@H]2C[C@@H](O)CN2C(=O)[C@@H](NC(=O)CCCCCCC(=O)N2CCN(CC3(C)CCC(c4ccc(Cl)cc4)=C(CN4CCN(c5ccc(C(=O)NS(=O)(=O)c6ccc(N[C@H](CCN7CCCC7)CSc7ccccc7)c([N+](=O)[O-])c6)cc5)CC4)C3)CC2)C(C)(C)C)cc1` (stereo partly drawn) [Compound 38, (2S,4R)-1-((2S)-2-(8-(4-((4′-chloro-4-methyl-6-((4-(4-(((3-nitro-4-(((R)-1-(phenylthio)-4-(pyrrolidin-1-yl)butan-2-yl)amino)phenyl)sulfonyl)carbamoyl)phenyl)piperazin-1-yl)methyl)-2,3,4,5-tetrahydro-[1,1′-biphenyl]-4-yl)methyl)piperazin-1-yl)-8-oxooctanamido)-3,3-dimethylbutanoyl)-4-hydroxy-N—((S)-1-(4-(4-methylthiazol-5-yl)phenyl)ethyl)pyrrolidine-2-carboxamide], the values for the IC50 in assay [1] (setting [9]), in assay [1] (setting [4]) and in assay [2] (setting [5]) were less than 20 nM, 17.6 nM and 3000 nM, respectively. Further, in assay [2] (setting [7]), the “Platelets/MOLT-4 IC50 Fold change” value is on record as 170. The “Anti-Cancer Activity IC50 (48 hr) RS4; 11” value in assay [3] (Table 2, 48 hr, MTS) is recorded as “+ ++”.

For the compound `Cc1ncsc1-c1ccc([C@H](C)NC(=O)[C@@H]2C[C@@H](O)CN2C(=O)[C@@H](NC(=O)CCCCCCC(=O)N2CCN(CC3(C)CCC(c4ccc(Cl)cc4)=C(CN4CCN(c5ccc(C(=O)NS(=O)(=O)c6ccc(N[C@H](CCN7CCCCC7)CSc7ccccc7)c([N+](=O)[O-])c6)cc5)CC4)C3)CC2)C(C)(C)C)cc1` (stereo partly drawn) [Compound 39, (2S,4R)-1-((2S)-2-(8-(4-((4′-chloro-4-methyl-6-((4-(4-(((3-nitro-4-(((R)-1-(phenylthio)-4-(piperidin-1-yl)butan-2-yl)amino)phenyl)sulfonyl)carbamoyl)phenyl)piperazin-1-yl)methyl)-2,3,4,5-tetrahydro-[1,1′-biphenyl]-4-yl)methyl)piperazin-1-yl)-8-oxooctanamido)-3,3-dimethylbutanoyl)-4-hydroxy-N—((S)-1-(4-(4-methylthiazol-5-yl)phenyl)ethyl)pyrrolidine-2-carboxamide], the IC50 in assay [1] (setting [9]) is less than 20 nM; in assay [1] (setting [4]) it was 14.3 nM; in assay [2] (setting [5]), 4570 nM; in assay [2] (setting [12]) it was 4570 nM; in assay [3] (setting [11]), less than 20 nM; in assay [3] (setting [13]) it was 8.4 nM. The “Platelets/MOLT-4 IC50 Fold change” value in assay [2] (setting [7]) is reported as 319.

With `Cc1ncsc1-c1ccc([C@H](C)NC(=O)[C@@H]2C[C@@H](O)CN2C(=O)[C@@H](NC(=O)CCCCCCC(=O)N2CCN(CC3(C)CCC(c4ccc(Cl)cc4)=C(CN4CCN(c5ccc(C(=O)NS(=O)(=O)c6ccc(N[C@H](CCN(C)CCO)CSc7ccccc7)c([N+](=O)[O-])c6)cc5)CC4)C3)CC2)C(C)(C)C)cc1` (stereo partly drawn) [Compound 41, (2S,4R)-1-((2S)-2-(8-(4-((4′-chloro-6-((4-(4-(((4-(((R)-4-((2-hydroxyethyl)(methyl)amino)-1-(phenylthio)butan-2-yl)amino)-3-nitrophenyl)sulfonyl)carbamoyl)phenyl)piperazin-1-yl)methyl)-4-methyl-2,3,4,5-tetrahydro-[1,1′-biphenyl]-4-yl)methyl)piperazin-1-yl)-8-oxooctanamido)-3,3-dimethylbutanoyl)-4-hydroxy-N—((S)-1-(4-(4-methylthiazol-5-yl)phenyl)ethyl)pyrrolidine-2-carboxamide], the IC50 was 20 to 100 nM in assay [1] (setting [9]), 38.1 nM in assay [1] (setting [4]), 4900 nM in assay [2] (setting [5]) and less than 20 nM in assay [3] (setting [11]). In assay [2] (setting [7]), the “Platelets/MOLT-4 IC50 Fold change” value turned out to be 128.

In the case of `Cc1ncsc1-c1ccc([C@H](C)NC(=O)[C@@H]2C[C@@H](O)CN2C(=O)[C@@H](NC(=O)CCCCCCC(=O)N2CCN(C[C@]3(C)CCC(c4ccc(Cl)cc4)=C(CN4CCN(c5ccc(C(=O)NS(=O)(=O)c6ccc(N[C@H](CCN(C)CCO)CSc7ccccc7)c(S(=O)(=O)C(F)(F)F)c6)cc5)CC4)C3)CC2)C(C)(C)C)cc1` [Compound 62], the IC50 in assay [1] (setting [9]) is less than 20 nM; in assay [1] (setting [10]), 21 nM; in assay [2] (setting [6]), greater than 10000 nM; in assay [3] (setting [11]) it was less than 20 nM; in assay [3] (setting [8]), less than 7 nM.
